Assay results published in PMC9437094, “Docking study, molecular dynamic, synthesis, anti-α-glucosidase assessment, and ADMET prediction of new benzimidazole-Schiff base derivatives” (Scientific Reports, 2022).
Read-outs that look alike come from different tables or passages of the source.

Assays:
[1] = biological target: α-glucosidase from Saccharomyces cerevisiae (Saccharomyces cerevisiae, UniProt P53341); assay: biochemical; format: biochemical; conditions: for IC50: substrate p-nitrophenyl glucopyranoside, 37 °C
α-glucosidase from Saccharomyces cerevisiae, sequence (P53341 whole entry): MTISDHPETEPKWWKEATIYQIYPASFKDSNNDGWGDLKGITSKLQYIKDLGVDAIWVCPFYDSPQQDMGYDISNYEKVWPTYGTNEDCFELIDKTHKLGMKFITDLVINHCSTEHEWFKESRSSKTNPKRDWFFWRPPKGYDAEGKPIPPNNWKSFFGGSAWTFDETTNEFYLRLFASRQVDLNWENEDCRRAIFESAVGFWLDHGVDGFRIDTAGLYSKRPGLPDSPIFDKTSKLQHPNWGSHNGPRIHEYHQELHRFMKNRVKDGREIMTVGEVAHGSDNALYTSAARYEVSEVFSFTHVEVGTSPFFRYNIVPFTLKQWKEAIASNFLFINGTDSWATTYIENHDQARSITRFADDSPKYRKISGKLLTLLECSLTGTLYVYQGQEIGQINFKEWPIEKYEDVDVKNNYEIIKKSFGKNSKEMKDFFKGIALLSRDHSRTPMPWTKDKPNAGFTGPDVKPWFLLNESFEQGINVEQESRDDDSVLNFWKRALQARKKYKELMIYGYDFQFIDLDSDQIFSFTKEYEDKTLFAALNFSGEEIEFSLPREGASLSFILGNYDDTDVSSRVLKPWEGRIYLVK
Method: Next, absorbance was measured at 405 nm by spectrophotometer (Gen5, Power wave xs2, BioTek, USA), and IC50 value for each tested compound was calculated by taking advantage of the nonlinear regression curve (logit method).

[2] = tested on: HDF; assay: MTT cytotoxicity assay on HDF; format: cell-based; conditions: HDF human normal cell line, at 200 μM
[3] = tested on: MCF-7; assay: MTT cytotoxicity assay on MCF-7; format: cell-based; conditions: MCF-7 human cancer cell line, at 200 μM
[4] = biological target: α-glucosidase (Saccharomyces cerevisiae, UniProt P53341); assay: Enzyme kinetic study (Lineweaver–Burk and secondary plot); format: biochemical
α-glucosidase, sequence (P53341 whole entry): as above
Method: Furthermore, the plot of the Km versus different concentrations of compound 8p gave an estimate of Ki as the inhibition constant (Fig. 2b). Ki value for the latter compound was 60 µM.
A Lineweaver–Burk plot was generated to identify the type of inhibition and the Michaelis–Menten constant (Km) value was determined from plot between reciprocal of the substrate concentration (1/[S]) and reciprocal of enzyme rate (1/V) over various inhibitor concentrations. Experimental inhibitor constant (Ki) value was constructed by secondary plots of the inhibitor concentration [I] versus Km.

Compound	IC50 ([1]; IC50, yeast α-glucosidase)	melting point	further results
COc1ccc(-c2nc3cc(C(=O)N/N=C/c4ccccc4)ccc3[nH]2)cc1 [Compound 8a, (E)-N'-benzylidene-2-(4-methoxyphenyl)-1H-benzo[d]imidazole-5-carbohydrazide]	70.6 ± 6.8 µM	> 250 °C	cytotoxicity (MTT) [2]: non-cytotoxic; cytotoxicity (MTT) [3]: non-cytotoxic
COc1ccc(-c2nc3cc(C(=O)N/N=C/c4ccc(C)cc4)ccc3[nH]2)cc1 [Compound 8b, (E)-2-(4-methoxyphenyl)-N'-(4-methylbenzylidene)-1H-benzo[d]imidazole-5-carbohydrazide]	102 ± 5.6 µM	> 250 °C	–
COc1ccc(/C=N/NC(=O)c2ccc3[nH]c(-c4ccc(OC)cc4)nc3c2)cc1 [Compound 8c, (E)-N'-(4-methoxybenzylidene)-2-(4-methoxyphenyl)-1H-benzo[d]imidazole-5-carbohydrazide]	110 ± 5.5 µM	> 250 °C	–
COc1ccc(-c2nc3cc(C(=O)N/N=C/c4cc(OC)c(OC)c(OC)c4)ccc3[nH]2)cc1 [Compound 8d, (E)-2-(4-methoxyphenyl)-N'-(3,4,5-trimethoxybenzylidene)-1H-benzo[d]imidazole-5-carbohydrazide]	–	–	inhibitory activity against α-glucosidase (in words) ([1]; yeast α-glucosidase): inactive
COc1ccc(-c2nc3cc(C(=O)N/N=C/c4cccc(Oc5ccccc5)c4)ccc3[nH]2)cc1 [Compound 8e, (E)-2-(4-methoxyphenyl)-N'-(3-phenoxybenzylidene)-1H-benzo[d]imidazole-5-carbohydrazide]	127 ± 6.5 µM	> 250 °C	–
COc1ccc(-c2nc3cc(C(=O)N/N=C/c4cccc(O)c4)ccc3[nH]2)cc1 [Compound 8f, (E)-N'-(3-hydroxybenzylidene)-2-(4-methoxyphenyl)-1H-benzo[d]imidazole-5-carbohydrazide]	181 ± 8.5 µM	–	–
COc1ccc(-c2nc3cc(C(=O)N/N=C/c4ccc(O)c(OC)c4)ccc3[nH]2)cc1 [Compound 8g, (E)-N'-(4-hydroxy-3-methoxybenzylidene)-2-(4-methoxyphenyl)-1H-benzo[d]imidazole-5-carbohydrazide]	–	> 250 °C	IC50 ([1]; yeast α-glucosidase, read-out: IC50): 287 ± 7.4 µM
COc1ccc(-c2nc3cc(C(=O)N/N=C/c4ccccc4F)ccc3[nH]2)cc1 [Compound 8h, (E)-N'-(2-fluorobenzylidene)-2-(4-methoxyphenyl)-1H-benzo[d]imidazole-5-carbohydrazide]	69 ± 4 µM	–	cytotoxicity (MTT) [2]: non-cytotoxic; cytotoxicity (MTT) [3]: non-cytotoxic
COc1ccc(-c2nc3cc(C(=O)N/N=C/c4cccc(F)c4)ccc3[nH]2)cc1 [Compound 8i, (E)-N'-(3-fluorobenzylidene)-2-(4-methoxyphenyl)-1H-benzo[d]imidazole-5-carbohydrazide]	88.1 ± 6 µM	> 250 °C	–
COc1ccc(-c2nc3cc(C(=O)N/N=C/c4ccc(F)cc4)ccc3[nH]2)cc1 [Compound 8j, (E)-N'-(4-fluorobenzylidene)-2-(4-methoxyphenyl)-1H-benzo[d]imidazole-5-carbohydrazide]	84.1 ± 4.5 µM	> 250 °C	–
COc1ccc(-c2nc3cc(C(=O)N/N=C/c4ccccc4Cl)ccc3[nH]2)cc1 [Compound 8k, (E)-N'-(2-chlorobenzylidene)-2-(4-methoxyphenyl)-1H-benzo[d]imidazole-5-carbohydrazide]	90 ± 7.5 µM	> 250 °C	–
COc1ccc(-c2nc3cc(C(=O)N/N=C/c4ccc(Cl)cc4)ccc3[nH]2)cc1 [Compound 8l, (E)-N'-(4-chlorobenzylidene)-2-(4-methoxyphenyl)-1H-benzo[d]imidazole-5-carbohydrazide]	103 ± 5.5 µM	> 250 °C	–
COc1ccc(-c2nc3cc(C(=O)N/N=C/c4cccc(Br)c4)ccc3[nH]2)cc1 [Compound 8m, (E)-N'-(3-bromobenzylidene)-2-(4-methoxyphenyl)-1H-benzo[d]imidazole-5-carbohydrazide]	97 ± 4.4 µM	> 250 °C	–
COc1ccc(-c2nc3cc(C(=O)N/N=C/c4ccc([N+](=O)[O-])cc4)ccc3[nH]2)cc1 [Compound 8n, (E)-2-(4-methoxyphenyl)-N'-(4-nitrobenzylidene)-1H-benzo[d]imidazole-5-carbohydrazide]	112 ± 5.7 µM	> 250 °C	–
COc1ccc(-c2nc3cc(C(=O)N/N=C/c4cc5c(cc4[N+](=O)[O-])OCO5)ccc3[nH]2)cc1 [Compound 8o, (E)-2-(4-methoxyphenyl)-N'-((6-nitrobenzo[d][1,3]dioxol-5-yl)methylene)-1H-benzo[d]imidazole-5-carbohydrazide]	123 ± 6.1 µM	> 250 °C	–
COc1ccc(-c2nc3cc(C(=O)N/N=C/c4cccs4)ccc3[nH]2)cc1 [Compound 8p, (E)-2-(4-methoxyphenyl)-N'-(thiophen-2-ylmethylene)-1H-benzo[d]imidazole-5-carbohydrazide]	60.1 ± 3.6 µM	> 250 °C	type of inhibition ([4]; Lineweaver–Burk plot): competitive inhibitor; Ki ([4]; secondary plot of Km versus inhibitor concentration): 60 µM; cytotoxicity (MTT) [2]: non-cytotoxic; cytotoxicity (MTT) [3]: non-cytotoxic
